Experimental data taken from US20110105509A1 (Wyeth, LLC, priority 2009, published 2011).

target: T1, CRTH2 (Homo sapiens, UniProt Q9Y5Y4); test: FRET based competitive immunoassay (cAMP) in CRTH2 expressing CHO cells; format: cell-based; details: CRTH2 expressing CHO cells incubated with forskolin and PGD2; Eu3+ cryptate-labeled anti-cAMP and d2-labeled cAMP
T1 construct: expressed in transfected cells; host or cells: CHO cells
T1 sequence (Q9Y5Y4 1-395): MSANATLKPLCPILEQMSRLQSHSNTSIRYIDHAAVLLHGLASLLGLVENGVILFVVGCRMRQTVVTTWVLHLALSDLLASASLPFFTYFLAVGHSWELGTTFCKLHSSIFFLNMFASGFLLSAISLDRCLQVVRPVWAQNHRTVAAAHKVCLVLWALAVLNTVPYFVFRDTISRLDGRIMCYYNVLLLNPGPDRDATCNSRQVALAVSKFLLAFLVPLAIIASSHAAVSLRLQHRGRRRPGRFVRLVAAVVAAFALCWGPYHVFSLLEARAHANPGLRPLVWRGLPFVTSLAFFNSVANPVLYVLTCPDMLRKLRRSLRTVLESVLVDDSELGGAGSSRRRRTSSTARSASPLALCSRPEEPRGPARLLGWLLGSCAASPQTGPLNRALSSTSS
Protocol: FRET Assay: To evaluate potency compounds were tested in a FRET based competitive immunoassay in which CRTH2 expressing CHO cells were incubated in the presence of forskolin and PGD2 along with Eu3+ cryptate-labeled anti-cAMP and d2-labeled cAMP.

| SMILES | IC50 [nM] |
| --- | --- |
| Cc1c(-c2ccc(=O)n(C(C)C)n2)c2cc(F)cc(Cl)c2n1CC(=O)O [Example 232, 2-(7-chloro-5-fluoro-3-(1-isopropyl-6-oxo-1,6-dihydropyridazin-3-yl)-2-methyl-1H-indol-1-yl)acetic acid] | 1080 |
| Cc1c(-c2ccc(=O)n(Cc3ccccc3)n2)c2cc(Cl)cc(Cl)c2n1CC(=O)O [Example 234, 2-(3-(1-benzyl-6-oxo-1,6-dihydropyridazin-3-yl)-5,7-dichloro-2-methyl-1H-indol-1-yl)acetic acid] | 1000 |
| Cc1c(-c2ccc(=O)n(C(C)C)n2)c2cc(Cl)cc(Cl)c2n1CC(=O)O [Example 235, 2-(5,7-dichloro-3-(1-isopropyl-6-oxo-1,6-dihydropyridazin-3-yl)-2-methyl-1H-indol-1-yl)acetic acid] | 1580 |
| Cc1c(-c2nn(Cc3ccccc3)c(=O)c3ccccc23)c2cc(F)cc(S(C)(=O)=O)c2n1CC(=O)O [Example 237, 2-(3-(3-benzyl-4-oxo-3,4-dihydrophthalazin-1-yl)-5-fluoro-2-methyl-7-(methyl-sulfonyl)-1H-indol-1-yl)acetic acid] | > 1000 |
| Cc1c(-c2nn(Cc3ccccc3)c(=O)c3ccccc23)c2cc(F)cc(Cl)c2n1CC(=O)O [Example 243, 2-(3-(3-benzyl-4-oxo-3,4-dihydrophthalazin-1-yl)-7-chloro-5-fluoro-2-methyl-1H-indol-1-yl)acetic acid] | 33 |
| Cc1c(-c2nn(Cc3ccccc3)c(=O)c3ccccc23)c2cc(F)cc(F)c2n1CC(=O)O [Example 244, 2-(3-(3-benzyl-4-oxo-3,4-dihydrophthalazin-1-yl)-5,7-difluoro-2-methyl-1H-indol-1-yl)acetic acid] | 60 |
| Cc1c(-c2nn(Cc3ccccc3)c(=O)c3ccccc23)c2cc(Cl)cc(Cl)c2n1CC(=O)O [Example 245, 2-(3-(3-benzyl-4-oxo-3,4-dihydrophthalazin-1-yl)-5,7-dichloro-2-methyl-1H-indol-1-yl)acetic acid] | 587 |
| Cc1c(-c2ccc(=O)n(Cc3ccccc3)n2)c2cccc(Br)c2n1CC(=O)O [Example 246, 2-(3-(1-benzyl-6-oxo-1,6-dihydropyridazin-3-yl)-7-bromo-2-methyl-1H-indol-1-yl)-acetic acid] | > 2000 |
| Cc1c(-c2cn(Cc3ccccc3)c(=O)c3ccccc23)c2ccccc2n1CC(=O)O [Example 247, 2-(3-(2-benzyl-1-oxo-1,2-dihydroisoquinolin-4-yl)-2-methyl-1H-indol-1-yl)-acetic acid] | 12 |
| Cc1c(-c2cn(C(C)C)c(=O)c3ccccc23)c2cc(F)ccc2n1CC(=O)O [Example 249, 2-(5-fluoro-3-(2-isopropyl-1-oxo-1,2-dihydroisoquinolin-4-yl)-2-methyl-1H-indol-1-yl)acetic acid] | 5 |
| Cc1c(-c2cn(CC(F)(F)F)c(=O)c3ccccc23)c2ccccc2n1CC(=O)O [Example 251, 2-(2-methyl-3-(1-oxo-2-(2,2,2-trifluoroethyl)-1,2-dihydroisoquinolin-4-yl)-1H-indol-1-yl)acetic acid] | 205 |
| Cc1c(-c2cn(C(C)C)c(=O)c3ccccc23)c2ccccc2n1CC(=O)O [Example 252, 2-(3-(2-isopropyl-1-oxo-1,2-dihydroisoquinolin-4-yl)-2-methyl-1H-indol-1-yl)acetic acid] | 12 |
| COC(F)(F)Cn1cc(-c2c(C)n(CC(=O)O)c3ccccc23)c2ccccc2c1=O [Example 253, 2-(3-(2-(2,2-difluoro-2-methoxyethyl)-1-oxo-1,2-dihydroisoquinolin-4-yl)-2-methyl-1H-indol-1-yl)acetic acid] | 9 |
| Cc1c(-c2cn(CC(C)(C)C)c(=O)c3ccccc23)c2cc(F)ccc2n1CC(=O)O [Example 257, 2-(5-fluoro-2-methyl-3-(2-neopentyl-1-oxo-1,2-dihydroisoquinolin-4-yl)-1H-indol-1-yl)acetic acid] | 3 |
| Cc1c(-c2nn(Cc3nnc[nH]3)c(=O)c3ccccc23)c2cc(Cl)ccc2n1CC(=O)O [Example 259a, 2-(3-(3-((4H-1,2,4-triazol-3-yl)methyl)-4-oxo-3,4-dihydrophthalazin-1-yl)-5-chloro-2-methyl-1H-indol-1-yl)acetic acid] | 61 |
| Cc1nnc(Cn2nc(-c3c(C)n(CC(=O)O)c4ccc(Cl)cc34)c3ccccc3c2=O)[nH]1 [Example 259b, 2-(5-chloro-2-methyl-3-(3-((5-methyl-4H-1,2,4-triazol-3-yl)methyl)-4-oxo-3,4-dihydrophthalazin-1-yl)-1H-indol-1-yl)acetic acid] | 26 |
| Cc1c(-c2nn(CC(N)=O)c(=O)c3ccccc23)c2cc(Cl)ccc2n1CC(=O)O [Example 259c, 2-(3-(3-(2-amino-2-oxoethyl)-4-oxo-3,4-dihydrophthalazin-1-yl)-5-chloro-2-methyl-1H-indol-1-yl)acetic acid] | 23 |

The next lines start with the values.

| IC50 [nM] | SMILES |
| --- | --- |
| 401 | Cc1c(-c2ccc(=O)n(Cc3ccccc3)n2)c2cc(F)cc(Cl)c2n1CC(=O)O [Example 231, 2-(3-(1-benzyl-6-oxo-1,6-dihydropyridazin-3-yl)-7-chloro-5-fluoro-2-methyl-1H-indol-1-yl)acetic acid] |
| 147 | Cc1c(-c2ccc(=O)n(Cc3ccccc3)n2)c2cc(F)cc(F)c2n1CC(=O)O [Example 233, 2-(3-(1-benzyl-6-oxo-1,6-dihydropyridazin-3-yl)-5,7-difluoro-2-methyl-1H-indol-1-yl)acetic acid] |
| > 1000 | Cc1c(-c2ccc(=O)n(Cc3ccccc3)n2)c2cc(F)cc(S(C)(=O)=O)c2n1CC(=O)O [Example 236, 2-(3-(1-benzyl-6-oxo-1,6-dihydropyridazin-3-yl)-5-fluoro-2-methyl-7-(methyl-sulfonyl)-1H-indol-1-yl)acetic acid] |
| 13 | Cc1c(Cc2ccc(=O)n(Cc3ccc(C(C)(C)O)cc3)n2)c2cc(F)ccc2n1CC(=O)O [Example 238, 2-(5-fluoro-3-((1-(4-(2-hydroxypropan-2-yl)benzyl)-6-oxo-1,6-dihydropyridazin-3-yl)methyl)-2-methyl-1H-indol-1-yl)acetic acid] |
| 7 | Cc1c(Cc2ccc(=O)n(Cc3ccc(C(O)(C(F)(F)F)C(F)(F)F)cc3)n2)c2cc(F)ccc2n1CC(=O)O [Example 239, 2-(5-fluoro-3-((1-(4-(1,1,1,3,3,3-hexafluoro-2-hydroxypropan-2-yl)benzyl)-6-oxo-1,6-dihydropyridazin-3-yl)methyl)-2-methyl-1H-indol-1-yl)acetic acid] |
| 4 | Cc1c(Cc2ccc(=O)n(Cc3cccc(C(C)(C)O)c3)n2)c2cc(F)ccc2n1CC(=O)O [Example 240, 2-(5-fluoro-3-((1-(3-(2-hydroxypropan-2-yl)benzyl)-6-oxo-1,6-dihydropyridazin-3-yl)methyl)-2-methyl-1H-indol-1-yl)acetic acid] |
| 28 | Cc1c(Cc2ccc(=O)n(Cc3ccc(F)cc3F)n2)c2cc(F)cc(F)c2n1CC(=O)O [Example 242, 2-(3-((1-(2,4-difluorobenzyl)-6-oxo-1,6-dihydropyridazin-3-yl)methyl)-5,7-difluoro-2-methyl-1H-indol-1-yl)acetic acid] |
| 15 | Cc1c(-c2cn(Cc3ccccc3)c(=O)c3ccccc23)c2cc(F)ccc2n1CC(=O)O [Example 248, 2-(3-(2-benzyl-1-oxo-1,2-dihydroisoquinolin-4-yl)-5-fluoro-2-methyl-1H-indol-1-yl)acetic acid] |
| 4 | Cc1c(-c2cn(CC(F)(F)F)c(=O)c3ccccc23)c2cc(F)ccc2n1CC(=O)O [Example 250, 2-(5-fluoro-2-methyl-3-(1-oxo-2-(2,2,2-trifluoroethyl)-1,2-dihydroiso-quinolin-4-yl)-1H-indol-1-yl)acetic acid] |
| 15 | Cc1c(-c2cn(CC(C)(C)O)c(=O)c3ccccc23)c2cc(F)ccc2n1CC(=O)O [Example 254, 2-(5-fluoro-3-(2-(2-hydroxy-2-methylpropyl)-1-oxo-1,2-dihydroisoquinolin-4-yl)-2-methyl-1H-indol-1-yl)acetic acid] |
| 55 | Cc1c(-c2cn(CC(O)(C(F)(F)F)C(F)(F)F)c(=O)c3ccccc23)c2cc(F)ccc2n1CC(=O)O [Example 255, 2-(5-fluoro-2-methyl-3-(1-oxo-2-(3,3,3-trifluoro-2-hydroxy-2-(trifluoro-methyl)propyl)-1,2-dihydroisoquinolin-4-yl)-1H-indol-1-yl)acetic acid] |
| 2 | Cc1c(-c2cn(CCCC(F)(F)F)c(=O)c3ccccc23)c2cc(F)ccc2n1CC(=O)O [Example 256, (5-fluoro-2-methyl-3-(1-oxo-2-(4,4,4-trifluorobutyl)-1,2-dihydroisoquinolin-4-yl)-1H-indol-1-yl)acetic acid] |
| 11 | Cc1c(-c2nn(CC(N)=O)c(=O)c3ccccc23)c2cc(F)ccc2n1CC(=O)O [Example 258, {3-[3-(2-amino-2-oxoethyl)-4-oxo-3,4-dihydrophthalazin-1-yl]-5-fluoro-2-methyl-1H-indol-1-yl}acetic acid] |
| 3380 | Cc1c(-c2ccc(=O)n(Cc3nnc[nH]3)n2)c2cc(F)ccc2n1CC(=O)O [Example 260a, 2-(3-(1-((4H-1,2,4-triazol-3-yl)methyl)-6-oxo-1,6-dihydropyridazin-3-yl)-5-fluoro-2-methyl-1H-indol-1-yl)acetic acid] |
